Patent publication US20100160208A1, “Pharmaceutical composition” (Antisense Pharma GmbH, priority 2003, published 2010)

Legend:
[1] = test system: glioma cell line A-172; test: Cell-mediated cytotoxicity (CARE-LASS) assay, LAK effector cells on A-172 target cells; format: cell-based; conditions: Seq. Id. No. 30 5 microM
Description: (§1) Cell-mediated cytotoxicity was quantified by the CARE-LASS assay (Lichtenfels et al. 1994) using the NSCLC (non small cell lung carcinoma cell) line NCI-H661, the glioma cell line A-172, and the pancreatic cancer cell line Hup-T3 as target cells. NCI-H661 cells were pretreated with 5 μM TGF (transforming growth factor)-beta 1 specific antisense phosphorothioate oligodeoxynucleotide (PTO) Seq. Id. No. 14. A-172 and Hup-T3 cells were pretreated with 5 μM TGF-beta 2 specific antisense phosphorothioate oligodeoxynucleotide Seq. Id. No. 30 in medium at 5% CO2 and 37° C. for 3 days according to the cell line suppliers' instructions. Additionally, for Hup-T3 cells 3 μg/ml Lipofectin® were used to enhance cellular uptake of the PTO. Untreated cells and cells treated with 3 μg/ml Lipofectin® were used as controls.
Lymphokine activated killer cells (LAK cells) were used as effector cells. LAK cells were generated by a 3 day pretreatment of 5×10^6 PBMC from healthy volunteers with 10 ng/ml rh IL-2 (recombinant human interleukin 2) in 4 ml RPMI 1640 medium supplemented with 10% fetal calf serum at 5% CO2 and 37° C. One part of the effector cells was incubated additionally with rh TGF-[…] to mimic the presence of tumor cells ([…] rh TGF-[…]1 for NCI-H661, […] rh TGF-[…]2 for A-172 and Hup-T3). The other part of cells was incubated without additional treatment.
Effector cells were incubated with the target cells with and without cytostatic drugs for 4 h. The supraaditive effect respectively the inhibition was calculated by subtracting the specific cell lysis, of the control from the specific cell lysis of the chemotherapeutic agent. Taking into account the sign this difference is summed up with the specific lysis of the inhibitor of TGF-beta, as depicted in the figures. In case the specific lysis of the combination of a chemotherapeutic agent with the TGF-beta inhibitor was higher than this sum, this was interpreted as supraaditive effect. In case the specific lysis of this combination was smaller than the sum this was interpreted as inhibition.

[2] = test system: NSCLC (non small cell lung carcinoma cell) line NCI-H661; test: Cell-mediated cytotoxicity (CARE-LASS) assay, LAK effector cells on NCI-H661 target cells; format: cell-based; conditions: FIG. 9; effector:target 1.25:1; Seq. Id. No. 14 5 microM; taxotere 0.37 μg/ml
Description: as §1
Lymphokine activated killer cells (LAK cells) were used as effector cells. LAK cells were generated by a 3 day pretreatment of 5×10^6 PBMC from healthy volunteers with 10 ng/ml rh IL-2 (recombinant human interleukin 2) in 4 ml RPMI 1640 medium supplemented with 10% fetal calf serum at 5% CO2 and 37° C. […]
Effector cells were incubated with the target cells with and without cytostatic drugs for 4 h. The supraaditive effect respectively the inhibition was calculated by subtracting the specific cell lysis, of the control from the specific cell lysis of the chemotherapeutic agent. […]

[3] = test system: pancreatic cancer cell line Hup-T3; test: Cell-mediated cytotoxicity (CARE-LASS) assay, LAK effector cells on Hup-T3 target cells; format: cell-based; conditions: FIG. 6; effector:target 10:1; Seq. Id. No. 30 5 microM; gemzar 20 μg/ml
Description: Cell-mediated cytotoxicity was quantified by the […] assay (Lichtenfels et al. 1994) using the NSCLC (non small cell lung carcinoma cell) line NCI-H661, the glioma cell line A-172, and the pancreatic cancer cell line Hup-T3 as target cells. […] Id. No. 14. […] Id. […] Additionally, for Hup-T3 cells 3 μg/ml Lipofectin® were used to enhance cellular uptake of the PTO. Untreated cells and cells treated with 3 μg/ml Lipofectin® were used as controls. Lymphokine activated killer cells (LAK cells) were used as effector cells. […] The other part of cells was incubated without additional treatment. Effector cells were incubated with the target cells with and without cytostatic drugs for 4 h. The supraaditive effect respectively the inhibition was calculated by subtracting the specific cell lysis, of the control from the specific cell lysis of the chemotherapeutic agent. Taking into account the sign this difference is summed up with the specific lysis of the inhibitor of TGF-beta, as depicted in the figures. In case the specific lysis of the combination of a chemotherapeutic agent with the TGF-beta inhibitor was higher than this sum, this was interpreted as supraaditive effect. In case the specific lysis of this combination was smaller than the sum this was interpreted as inhibition.

[4] = test system: glioblastoma, WHO grade IV; test: Clinical phase I/II study, intratumoral Seq. Id. No. 30 in patients with glioblastoma; format: in vivo, human
Excerpt: (§2) Clinical studies represented herein were primarily designed as safety studies and were approved by the local ethic committees and performed in accordance with the current international declaration of Helsinki for human experimentation and GCP and had to sign a written informed consent prior to recruitment.
(§3) The treatment with the antineoplastic agent followed routine schedules if nothing else is mentioned. Before the treatment with an TGF-beta antagonist, the antisense oligonucleotide of TGF-beta, with Seq. No. 30 the patients were selected according to the following criteria.
(§4) Patients had high grade gliom, either anaplastic astrocytome, WHO grade III, or glioblastoma, WHO grade IV, refractory to or recurrent after standard therapy (surgery, radiotherapy and different therapies with antineoplastic substances). Patients had not received antineoplastic agents within 10 days prior to the administration of the antagonist. Patients were between 18 and 75 years old. Karnofsky performance status (KPS) was at least 70%. Patients with clinically significant acute infections, cardiovascular abnormalities or poorly controlled seizures and pregnant and lactating females were excluded.
Surgical planning was based on computer tomography or magnetic resonance images. The perforated part of the catheter was placed in the solid, enhancing area of the tumor. Ventricles, cysts, resection cavities from prior surgical interventions, blood vessels and eloquent brain areas had to be avoided by the catheter trajectory. The catheter was introduced through a standard burr hole into the center of the largest tumor lesion. The distal end of the catheter was passed several centimetres under the galea through the skin and filled with saline. TGF-beta 2 specific antisense oligonucleotide with Seq. Id. No. 30 was administered intratumorally as a continuous high-flow microperfusion using an external pump system, Graseby 3200 (Smith Medical, London, GBM). The application system was removed after the end of the infusion. For safety assessment patients were followed up for 28 days. […]

[5] = test system: anaplastic astrocytoma, WHO grade III; test: Clinical phase I/II study, intratumoral Seq. Id. No. 30 in patients with anaplastic astrocytoma; format: in vivo, human
Excerpt: as §2, §3, §4
Surgical planning was based on computer tomography or magnetic resonance images. The perforated part of the catheter was placed in the solid, enhancing area of the tumor. Ventricles, cysts, resection cavities from prior surgical interventions, blood vessels and eloquent brain areas had to be avoided by the catheter trajectory. The catheter was introduced through a standard burr hole into the center of the largest tumor lesion. The distal end of the catheter was passed several centimetres under the galea through the skin and filled with saline. TGF-beta 2 specific antisense oligonucleotide with Seq. Id. No. 30 was administered intratumorally as a continuous high-flow microperfusion using an external pump system, Graseby 3200 (Smith Medical, London, GBM). The application system was removed after the end of the infusion. For safety assessment patients were followed up for 28 days. Post-study MRI and survival data until death were collected by the investigators.
Comparison of survival data of patients treated with antineoplastic agents in combination with antagonists of factors negatively influencing the immune system (here: an antisense oligonucleotide of TGF-beta with the sequence Id. No. 30) to literature data for treatment with antineoplastic alone. Survival time is given from start of first chemotherapy after tumor recurrence. Median overall survival time of all patients treated with antineoplastic agents and TGF-beta 2 specific antisense oligonucleotide with Seq. Id. No. 30 (anaplastic astrocytom: 8 patients, glioblastoma, 23 patients) are compared to the most current literature data (Theodosopoulos, P. V. et al. 2001).
Reduction of tumor volumes of patients 04 and 17 was more than 80%. Tumor volume was assessed by measurement of the largest cross-sectional diameter of the enhancing lesion in the first layer and the largest cross-sectional diameter perpendicular to the first in the same plane and layer. For the third dimension, the largest cross-sectional diameter of all further planes perpendicular to the first one was determined.

[6] = FIG. 5, effector:target 1.25:1, CCNU 10 μM
[7] = FIG. 10, effector:target 5:1, procarbacine 3 nmol/ml
[8] = FIG. 8, effector:target 2.5:1, vincristine 0.04 μmol/ml
[9] = FIG. 7, effector:target 10:1, temozolomide 50 μM
[10] = FIG. 4, effector:target 20:1, BCNU 4 μM
[11] = calculated after start of chemotherapy, patients treated with antineoplastic agents and Seq. Id. No. 30
[12] = oligonucleotide following chemotherapy (mainly temozolomide)

O=NN(CCCl)C(=O)NC1CCCCC1 [CCNU, 1-(2-Chloroethyl)-3-cyclohexyl-1-nitrosourea, reference compound]
specific lysis of tumor cells [1, 6]: 0.5%

CNNCc1ccc(C(=O)NC(C)C)cc1 [procarbacine, reference compound]
specific lysis of tumor cells [1, 7]: 6.1%

CC[C@]1(O)C[C@H]2CN(CCc3c([nH]c4ccccc34)[C@@](C(=O)OC)(c3cc4c(cc3OC)N(C=O)[C@H]3[C@@](O)(C(=O)OC)[C@H](OC(C)=O)[C@]5(CC)C=CCN6CC[C@]43[C@@H]65)C2)C1 [vincristine, reference compound]
specific lysis of tumor cells [1, 8]: 12.6%

CTGATGTGTTGAAGAACA (chemistry not given here) [Seq. Id. No. 14]
specific lysis of tumor cells [2]: 65.3% | specific lysis of tumor cells [1, 7]: 16.4%

Cn1nnc2c(C(N)=O)ncn2c1=O [temozolomide, 3,4-dihydro-3-methyl-4-oxoimidazo->5,1d′1,2,3,4-tetrazin-8-carboximide, reference compound]
specific lysis of tumor cells [1, 9]: 31.3%

O=NN(CCCl)C(=O)NCCCl [BCNU, N,N′-bis(2-chlorethyl)-N-nitroso-urea, reference compound]
specific lysis of tumor cells [1, 10]: 15.6%

CC(=O)O[C@@]12CO[C@@H]1C[C@H](O)[C@@]1(C)C(=O)[C@H](O)C3=C(C)[C@@H](OC(=O)[C@H](O)[C@@H](NC(=O)OC(C)(C)C)c4ccccc4)C[C@@](O)([C@@H](OC(=O)c4ccccc4)[C@H]21)C3(C)C [taxotere, reference compound]
specific lysis of tumor cells [2]: 30.5%

Nc1ccn([C@@H]2O[C@H](CO)[C@@H](O)C2(F)F)c(=O)n1 [gemzar, reference compound]
specific lysis of tumor cells [3]: 34.5%

CGGCATGTCTATTTTGTA [Seq. Id. No. 30]
specific lysis of tumor cells [3]: 59.5% | median overall survival time ([4]; FIG. 3, Seq. Id. No. 30 following temozolomide, from start of first chemotherapy after tumor recurrence, 10 patients): 45.1 weeks | median overall survival in our study [4, 11]: 42.4 weeks | median overall survival times [4, 12]: 45 weeks | tumor response ([5]; 1. Example, one patient, 21 months after first application, assessed by 3 independent specialists): complete response | overall survival after first recurrence ([5]; 1. Example, one patient, one cycle 10 μM, 4 μL/min, 1.42 mg in 4 days intratumorally after ACNU/tenoposide, temozolomide, Caelyx): 195 weeks | overall survival after diagnosis of anaplastic astrocytoma ([5]; 1. Example, one patient, one cycle intratumorally after prior chemotherapy): 208 weeks | tumor reduction ([5]; 2. Example, one patient, magnetic resonance image 19.4 months after start of oligonucleotide treatment, central reading, partial response): 83% | median overall survival time ([5]; FIG. 3, Seq. Id. No. 30 following temozolomide, from start of first chemotherapy after tumor recurrence, 3 patients): 146.6 weeks | mean overall survival ([5]; all anaplastic astrocytoma patients): 90 weeks | median overall survival in our study [5, 11]: 147 weeks | mean overall survival ([5]; combination of Seq. Id. No. 30 and at least one further antineoplastic agent (e.g. temozolomide)): 146.6 weeks | median overall survival times [5, 12]: about 147 weeks | Reduction of tumor volumes ([5]; patients 04 and 17): more than 80% | specific lysis of tumor cells [1, 10]: 29.4% | specific lysis of tumor cells [1, 6]: 4.4% | specific lysis of tumor cells [1, 9]: 39.2% | specific lysis of tumor cells [1, 8]: 13.9%
